From patent publication US5861300A, “Antiviral transgenic plants, vectors, cells and methods” (The Cleveland Clinic Foundation, priority 1995, dated 1999) come the findings set out here.

Test [1] deals with human 2-5A-dependent RNase (recombinant and HeLa cell). Put plainly: uv covalent crosslinking of 2-5A probe with unlabeled oligonucleotide competitors. In kind it is binding. The settings on record: competitor 100 nM; recombinant human enzyme in wheat germ extract; same pattern in HeLa cell extract. The method, then:
(§1) The synthesis of the 2-5A probe, p(A2'p)2 (br^8 A2'p)2 A[32P]Cp, and its crosslinking to 2-5A-dependent RNase is performed exactly as described. See Nolan-Sorden, N. L. et al., Anal. Biochem., 184:298-304 (1990). Briefly, the 2-5A probe, about 0.7 to 2.5 nM at […], is incubated for about one hour on ice with cell extract prepared as described, Silverman, R. H. and Krause, D., I.R.L. Press, Oxford, England, pp. 149-193 (1987), in the absence or presence of unlabeled oligonucleotide competitors. Covalent crosslinking is done under a uv lamp (308 nm) for one hour on ice and the proteins are separated on SDS/10% polyacrylamide gels. Filter assays for 2-5A binding activity using the 2-5A probe for about one hour on ice, as described in Knight, M. et al., Nature, 288:189-192 (1980).

Test [2] has as its system murine 2-5A-dependent RNase (truncated recombinant clone ZB1 and naturally occurring L929 cell enzyme). The description is as above. In kind it is binding. The settings on record: for competition with 2-5A probe for binding to protein: competitor 100 nM, recombinant 74 kDa protein in wheat germ extract, similar profile with L929 cell enzyme; for concentration required to prevent 2-5A probe binding: both proteins (recombinant ZB1 and naturally occurring). The method, then: as §1

The test system of a further test is 32P-2-5A probe. Description: 2-5A binding of lysine to asparagine mutants, uv crosslinking, phosphorimager analysis. The settings on record: wheat germ translation products; phosphorimager analysis of dried gel.
In the next test the test system is 2-5A probe. Description: 2-5A binding activity of nested 3'-deletion clones (filter binding and uv crosslinking). Conditions: expressed in wheat germ extract. The procedure:
The set of nested 3'-deletions of the truncated murine 2-5A-dependent RNase cDNA, ZB1, is generated with exonuclease III/S1 nuclease digestion followed by filling-in with Klenow DNA Polymerase using the "Erase-A-Base"system (Promega).
as §1

The test system of another test is poly(C). Put plainly: ribonuclease assay with 2-5A-cellulose. It is filed as biochemical. The settings on record: after one hour of incubation; enzyme bound to 2-5A-cellulose. The method, then:
(§2) Transcription of plasmids with phage RNA polymerases is in the presence of mGppppG as described (Promega) except that reaction mixtures are supplemented with 15% dimethyl sulfoxide and incubations are at about 37° C. for about 90 minutes. RNA is purified through Sephadex G50 spun-columns and ethanol precipitated prior to translation. Protein synthesis was performed, as described (Promega), at about 30° C. for about one hour in micrococcal nuclease-pretreated rabbit reticulocyte lysate or in an extract of wheat germ at about room temperature for about one hour and then at about […] for about 12 hours. Translation reactions contain about 50 μM zinc sulfate. […]
(§3) The ribonuclease assay with 2-5A-cellulose is performed, as described by Silverman, R. H., Anal. Biochem., 144:450-460 (1985). […] The matrix is then incubated with poly(U)-[^32 P]Cp or poly(C)-[^32 P]Cp (both at about 16 μM in nucleotide equivalents) at about 30° C. and the levels of acid-precipitable radioactive RNA are determined by filtration on glass-fiber filters.

The next test deals with poly(U). Description: ribonuclease assay with 2-5A-cellulose. It is filed as biochemical. Conditions: enzyme made in reticulocyte lysate, bound to 2-5A-cellulose, 30° C. The procedure: as §2, §3

Description for 32P-2-5A probe: Briefly, the 2-5A probe, about 0.7 to 2.5 nM at 3,0009 Ci/mmole, is incubated for about one hour on ice with cell extract prepared as described, Silverman, R. H. and Krause, D., I.R.L. Press, Oxford, England, pp. 149-193 (1987), in the absence or presence of unlabeled oligonucleotide competitors. Covalent crosslinking is done under a uv lamp (308 nm) for one hour on ice and the proteins are separated on SDS/10% polyacrylamide gels.
The lysines in the truncated murine 2-5A-dependent RNase, clone ZB1, at positions 240 and 274 are mutated, individually and together, to asparagine residues.

(A2'p)2 A: the figures for the “competition with 2-5A probe for binding to protein” value in test [1] and in test [2] were “not prevented” and “fails to interfere with binding”, respectively. Besides, the “fold higher concentration than trimer 2-5A required to prevent probe binding” value in test [2] (both proteins) is recorded as 500 fold. Further, the “concentration required to prevent 2-5A probe binding” value (“concentration required” below) in test [2] (probe 2.4 nM) came to 10 µM.

Take p3 (A2'p)2 A: the “competition with 2-5A probe for binding to protein” value is reported as “effectively competes” in test [1] and “completely prevents probe binding” in test [2]. The “concentration that prevents the 2-5A probe from binding” value in test [2] (probe 2.4 nM, either protein (recombinant ZB1 and naturally occurring)) is “about 20 nM”.

For p3 A2'pA, the “concentration required” value in test [2] (probe 2.4 nM) was above 10 µM.

Turning to p3 I2'pA2'pA, the “concentration required” value in test [2] (probe 2.4 nM) is listed as “about 1.0 μM”.

B1: ZB1(Lys^240,274 -)Asn): double mutant of clone ZB1, lysines 240 and 274 replaced by asparagine (protein, UniProt Q05921 1-735, looked up, variant K240N K274N)
2-5A-dependent ribonuclease: METPDYNTPQGGTPSAGSQRTVVEDDSSLIKAVQKGDVVRVQQLLEKGADANACEDTWGWTPLHNAVQAGRVDIVNLLLSHGADPHRRKKNGATPFIIAGIQGDVKLLEILLSCGADVNECDENGFTAFMEAAERGNAEALRFLFAKGANVNLRRQTTKDKRRLKQGGATALMSAAEKGHLEVLRILLNDMKAEVDARDNMGRNALIRTLLNWDCENVEEITSILIQHGADVNVRGERGNTPLIAAVERKHTGLVQMLLSREGINIDARDNEGNTALLIAVDKQLKEIVQLLLEKGADKCDDLVWIARRNHDYHLVKLLLPYVANPDTDPPAGDWSPHSSRWGTALKSLHSMTRPMIGKLKIFIHDDYKIAGTSEGAVYLGIYDNREVAVKVFRENSPRGCKEVSCLRDCGDHSNLVAFYGREDDKGCLYVCVSLCEWTLEEFLRLPREEPVENGEDKFAHSILLSIFEGVQKLHLHGYSHQDLQPQNILIDSKKAVRLADFDQSIRWMGESQMVRRDLEDLGRLVLYVVMKGEIPFETLKTQNDEVLLTMSPDEETKDLIHCLFSPGENVKNCLVDLLGHPFFWTWENRYRTLRNVGNESDIKVRKCKSDLLRLLQHQTLEPPRSFDQWTSKIDKNVMDEMNHFYEKRKKNPYQDTVGDLLKFIRNIGEHINEEKKRGMKEILGDPSRYFQETFPDLVIYIYKKLKETEYRKHFPQPPPRLSVPEAVGPGGIQS
As to B1, in the test with 32P-2-5A probe, the “2-5A binding activity relative to clone ZB1 (control)” value is given as 12.2%.

B2: ZB14: murine 2-5A-dependent RNase deletion mutant, amino acids 1 to 265, one P-loop motif deleted (protein, UniProt Q05921 1-265, looked up, fragment)
chain: METPDYNTPQGGTPSAGSQRTVVEDDSSLIKAVQKGDVVRVQQLLEKGADANACEDTWGWTPLHNAVQAGRVDIVNLLLSHGADPHRRKKNGATPFIIAGIQGDVKLLEILLSCGADVNECDENGFTAFMEAAERGNAEALRFLFAKGANVNLRRQTTKDKRRLKQGGATALMSAAEKGHLEVLRILLNDMKAEVDARDNMGRNALIRTLLNWDCENVEEITSILIQHGADVNVRGERGKTPLIAAVERKHTGLVQMLLSREGIN
Consider B2, for which the “2-5A binding activity relative to clone ZB1” value in the test on 2-5A probe is 1.9%.

B3: recombinant human 2-5A-dependent RNase: full-length human 2-5A-dependent RNase translated in vitro in reticulocyte lysate (protein, UniProt Q05823 1-741, looked up)
chain: MESRDHNNPQEGPTSSSGRRAAVEDNHLLIKAVQNEDVDLVQQLLEGGANVNFQEEEGGWTPLHNAVQMSREDIVELLLRHGADPVLRKKNGATPFILAAIAGSVKLLKLFLSKGADVNECDFYGFTAFMEAAVYGKVKALKFLYKRGANVNLRRKTKEDQERLRKGGATALMDAAEKGHVEVLKILLDEMGADVNACDNMGRNALIHALLSSDDSDVEAITHLLLDHGADVNVRGERGKTPLILAVEKKHLGLVQRLLEQEHIEINDTDSDGKTALLLAVELKLKKIAELLCKRGASTDCGDLVMTARRNYDHSLVKVLLSHGAKEDFHPPAEDWKPQSSHWGAALKDLHRIYRPMIGKLKFFIDEKYKIADTSEGGIYLGFYEKQEVAVKTFCEGSPRAQREVSCLQSSRENSHLVTFYGSESHRGHLFVCVTLCEQTLEACLDVHRGEDVENEEDEFARNVLSSIFKAVQELHLSCGYTHQDLQPQNILIDSKKAAHLADFDKSIKWAGDPQEVKRDLEDLGRLVLYVVKKGSISFEDLKAQSNEEVVQLSPDEETKDLIHRLFHPGEHVRDCLSDLLGHPFFWTWESRYRTLRNVGNESDIKTRKSESEILRLLQPGPSEHSKSFDKWTTKINECVMKKMNKFYEKRGNFYQNTVGDLLKFIRNLGEHIDEEKHKKMKLKIGDPSLYFQKTFPDLVIYVYTKLQNTEYRKHFPQTHSPNKPQCDGAGGASGLASPGC
modifications: full-length
notes: full-length human 2-5A-dependent RNase translated in vitro in reticulocyte lysate
Regarding B3, in the test with poly(C), the “poly(C) degraded” value is 20%. Besides, the “half-life of poly(U) degradation” value in the test with poly(U) is listed as “about 10 minutes”.

B4: ZB11: murine 2-5A-dependent RNase deletion mutant, amino acid residues 1 to 342 (protein, UniProt Q05921 1-342, looked up, fragment)
chain: METPDYNTPQGGTPSAGSQRTVVEDDSSLIKAVQKGDVVRVQQLLEKGADANACEDTWGWTPLHNAVQAGRVDIVNLLLSHGADPHRRKKNGATPFIIAGIQGDVKLLEILLSCGADVNECDENGFTAFMEAAERGNAEALRFLFAKGANVNLRRQTTKDKRRLKQGGATALMSAAEKGHLEVLRILLNDMKAEVDARDNMGRNALIRTLLNWDCENVEEITSILIQHGADVNVRGERGKTPLIAAVERKHTGLVQMLLSREGINIDARDNEGKTALLIAVDKQLKEIVQLLLEKGADKCDDLVWIARRNHDYHLVKLLLPYVANPDTDPPAGDWSPHSSRW
As for B4, the “loss of 2-5A binding activity as compared to clone ZB1” value with 2-5A probe is “about 26%”.

B5: ZB15: murine 2-5A-dependent RNase deletion mutant, amino acids 1 to 218, both P-loop motifs deleted (protein, UniProt Q05921 1-218, looked up, fragment)
chain: METPDYNTPQGGTPSAGSQRTVVEDDSSLIKAVQKGDVVRVQQLLEKGADANACEDTWGWTPLHNAVQAGRVDIVNLLLSHGADPHRRKKNGATPFIIAGIQGDVKLLEILLSCGADVNECDENGFTAFMEAAERGNAEALRFLFAKGANVNLRRQTTKDKRRLKQGGATALMSAAEKGHLEVLRILLNDMKAEVDARDNMGRNALIRTLLNWDCENV
With B5, the “2-5A binding activity relative to clone ZB1” value with 2-5A probe is reported as “completely lacking in 2-5A binding activity”.

B6: ZB13: murine 2-5A-dependent RNase deletion mutant, amino acids 1 to 294 (protein, UniProt Q05921 1-294, looked up, fragment)
chain: METPDYNTPQGGTPSAGSQRTVVEDDSSLIKAVQKGDVVRVQQLLEKGADANACEDTWGWTPLHNAVQAGRVDIVNLLLSHGADPHRRKKNGATPFIIAGIQGDVKLLEILLSCGADVNECDENGFTAFMEAAERGNAEALRFLFAKGANVNLRRQTTKDKRRLKQGGATALMSAAEKGHLEVLRILLNDMKAEVDARDNMGRNALIRTLLNWDCENVEEITSILIQHGADVNVRGERGKTPLIAAVERKHTGLVQMLLSREGINIDARDNEGKTALLIAVDKQLKEIVQLLLE
With B6, the “2-5A binding activity relative to clone ZB1” value in the test with 2-5A probe is listed as “about 38.3%”.
